Common to all, as to type: in vitro ADME
In data set [1] the test system is P-glycoprotein (human MDR1). The experiment in a line: Permeability and efflux in vitro in MDCK-MDR1 cell line. The settings on record: dog, MDCK-MDR1 cells, in absence of GF120918. As to the method:
(§1) Intrinsic clearance (CLint). CLint was determined in rat and human liver microsomes. Incubations were performed at 37° C., at a concentration of 1 μM of compound, and a microsomal protein concentration of 1 mg/mL. Serial samples were removed at intervals of up to 60 min and analyzed for the concentration of compound to determine its intrinsic clearance rate. Compound was incubated in rat and human hepatocytes (10^6 cells/mL) at 1 μM for 0, 10, 20, 40, 60 and 120 min. Serial samples were removed at intervals of up to 120 min and analyzed for the concentration of compound to determine its intrinsic clearance rate. Permeability and Efflux in vitro. The in vitro permeability and potential to be transported by P-glycoprotein (P-gp) was determined using an MDCK cell line transfected with human MDR1 (P-glycoprotein). […] Permeability in the A→B direction in absence and presence of GF120918 and in the B→A direction in absence of GF120918 was measured by monitoring the appearance of the test compound on the opposite side of the membrane using a specific LC-MS/MS method. The efflux ratio (B→*A-GF120918/A→B-GF120918) was calculated to determine whether the test compound was a P-gp substrate. […] Plasma stability is measured in rat and human plasma for 7 or 24 h at 37° C. […] Samples were analyzed by LC-MS/MS (without internal standard). […] Half-life (t1/2 in hours) is calculated from those data. […]

A short description of data set [2]: Intrinsic clearance in rat liver microsomes. Conditions: 37° C., 1 μM compound, 1 mg/mL microsomal protein. As to the method: as §1
A short description of data set [3]: Intrinsic clearance in human liver microsomes. The settings on record: 37° C., 1 μM compound, 1 mg/mL microsomal protein. As to the method: as §1
(In general: Liver microsomes are a subcellular fraction often used to study metabolism.)

Results on two compounds are retold here after patent publication US20220324817A1, “QUINAZOLINE PRODRUGS FOR THE TREATMENT OF VIRAL INFECTIONS AND FURTHER DISEASES” (Janssen Sciences Ireland Unlimited Company, priority 2019, published 2022).

As usually defined, the Papp A→B is the apparent permeability from the apical to the basolateral side of a cell layer. Read a high Papp A→B as ready permeation. Broadly, the microsomal CLint is the capacity of the preparation to metabolise the compound, expressed as a volume cleared per time. Higher therefore signals faster metabolism.

As for `CCCC[C@H](CO)Nc1nc(NC(=O)OCC)nc2c(C)cccc12` [Compound 1, ethyl (R)-(4-((1-hydroxyhexan-2-yl)amino)-8-methylquinazolin-2-yl)carbamate], the Papp A→B in data set [1] is 8.22 ×10⁻⁶ cm/s. Moreover, the efflux ratio in data set [1] (read-out: Efflux ratio B -> A/A -> B) is 4.5. Besides, the microsomal CLint at 1 μM in data set [2] was found to be 109 µL/min/mg; in data set [3] it was 47 µL/min/mg.

As to `CCCC[C@H](COC(=O)C(C)C)Nc1nc(NC(=O)C(C)C)nc2c(C)cccc12` [Compound 2, (R)-2-((2-isobutyramido-8-methylquinazolin-4-yl)amino)hexyl isobutyrate], the intrinsic clearance (microsomal CLint) at 1 μM in data set [2] was 84 µL/min/mg.
